In patent publication US8148388B2, “2,4 (4,6) pyrimidine derivatives” (Janssen Pharmaceutica, N.V., priority 2004, dated 2012):
Read-outs that look alike come from different tables or passages of the source.

What was measured:
CSK (h) = CSK (h) (Homo sapiens, UniProt P41240); assay: CSK human kinase assay (glass-fiber filter); assay type: biochemical; conditions: test concentration of 10^−6M; read-out: C2 score (inhibition of CSK human)
Description: In the glass-fiber filter technology the activity of the kinase of interest is measured using an appropriate substrate that is incubated with the aforementioned kinase protein in the presence of (^33P) radiolabeled ATP. (^33P) Phosphorylation of the substrate is subsequently measured as radioactivity bound on a glass fiber-filter.
All kinases are pre-diluted to a 10× working concentration prior to addition into the assay. The composition of the dilution buffer for each kinase is detailed below.
In a final reaction volume of 25 μl, CSK (h) (5-10 mU) is incubated with 50 mM Tris pH 7.5, 0.1 mM EGTA, 0.1 mM Na3VO4, 0.1% β-mercaptoethanol, 0.1 mg/ml poly(Glu, Tyr) 4:1, 10 mM MnCl2, 10 mM MgAcetate and [γ-^33P-ATP] (specific activity approx. 500 cpm/pmol, concentration as required). The reaction is initiated by the addition of the MgATP mix. After incubation for 40 minutes at room temperature, the reaction is stopped by the addition of 5 μl of a 3% phosphoric acid solution. 10 μl of the reaction is then spotted onto a Filtermat A and washed three times for 5 minutes in 75 mM phosphoric acid and once in methanol prior to drying and scintillation counting.

Fms (h) = Fms (h) (Homo sapiens, UniProt P07333); assay: Fms human kinase assay (glass-fiber filter); assay type: biochemical; conditions: test concentration of 10^−6M; read-out: C7 score (inhibition of Fms human)
Chain of Fms (h) (P07333 20-972): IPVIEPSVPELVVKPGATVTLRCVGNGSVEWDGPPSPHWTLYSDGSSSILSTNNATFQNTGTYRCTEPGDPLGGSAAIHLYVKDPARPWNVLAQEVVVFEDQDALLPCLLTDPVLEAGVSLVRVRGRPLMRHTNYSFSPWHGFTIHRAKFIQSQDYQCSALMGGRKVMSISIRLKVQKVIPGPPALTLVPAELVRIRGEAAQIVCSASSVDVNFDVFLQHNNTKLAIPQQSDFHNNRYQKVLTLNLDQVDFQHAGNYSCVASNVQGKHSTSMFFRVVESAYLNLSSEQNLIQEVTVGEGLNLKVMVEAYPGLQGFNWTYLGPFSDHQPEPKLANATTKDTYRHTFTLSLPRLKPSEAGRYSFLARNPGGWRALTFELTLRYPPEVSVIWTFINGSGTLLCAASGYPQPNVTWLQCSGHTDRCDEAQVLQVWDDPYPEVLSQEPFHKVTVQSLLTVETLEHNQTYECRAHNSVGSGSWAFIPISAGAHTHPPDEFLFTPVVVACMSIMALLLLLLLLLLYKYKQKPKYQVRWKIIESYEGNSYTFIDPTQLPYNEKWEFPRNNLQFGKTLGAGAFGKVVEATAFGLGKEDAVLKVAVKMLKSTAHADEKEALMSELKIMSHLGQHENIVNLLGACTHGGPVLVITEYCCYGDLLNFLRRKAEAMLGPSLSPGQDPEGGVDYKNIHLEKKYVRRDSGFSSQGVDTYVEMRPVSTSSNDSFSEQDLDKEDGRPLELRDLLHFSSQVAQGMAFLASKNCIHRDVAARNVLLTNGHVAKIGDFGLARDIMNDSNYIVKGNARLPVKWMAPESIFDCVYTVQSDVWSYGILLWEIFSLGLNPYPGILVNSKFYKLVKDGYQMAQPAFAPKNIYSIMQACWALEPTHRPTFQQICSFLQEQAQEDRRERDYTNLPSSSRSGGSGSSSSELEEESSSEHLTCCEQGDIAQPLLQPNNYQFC
In short: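 Radiometric filter-binding assay: Fms (5-10 mU) with 250 μM peptide substrate and [γ-33P]ATP in 8 mM MOPS pH 7.0, 10 mM Mg acetate, 40 min at room temperature. Reaction stopped with phosphoric acid; substrate-bound 33P counted on P30 filtermat.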

Lyn (h) = Lyn (h) (Homo sapiens, UniProt P07948); assay: Lyn human kinase assay (glass-fiber filter); assay type: biochemical; conditions: test concentration of 10^−6M; read-out: C10 score (inhibition of Lyn human)
Chain of Lyn (h) (P07948 whole entry): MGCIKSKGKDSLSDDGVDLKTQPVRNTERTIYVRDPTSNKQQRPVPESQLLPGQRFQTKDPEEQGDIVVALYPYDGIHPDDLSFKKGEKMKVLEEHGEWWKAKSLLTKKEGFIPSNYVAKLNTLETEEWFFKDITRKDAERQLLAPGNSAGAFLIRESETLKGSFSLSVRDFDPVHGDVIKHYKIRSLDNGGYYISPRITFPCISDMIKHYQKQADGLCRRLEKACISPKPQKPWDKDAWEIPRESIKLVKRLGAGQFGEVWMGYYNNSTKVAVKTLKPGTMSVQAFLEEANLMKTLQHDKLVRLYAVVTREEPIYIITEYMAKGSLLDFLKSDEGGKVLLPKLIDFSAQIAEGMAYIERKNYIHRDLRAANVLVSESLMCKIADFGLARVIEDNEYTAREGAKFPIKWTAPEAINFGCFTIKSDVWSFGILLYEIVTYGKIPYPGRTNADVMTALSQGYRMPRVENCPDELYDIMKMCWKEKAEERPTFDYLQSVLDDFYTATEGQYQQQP
In short: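 Human Lyn (5-10 mU) phosphorylating poly(Glu,Tyr) 4:1 at 0.1 mg/ml with [γ-33P]ATP (concentration as required) in 50 mM Tris pH 7.5, 10 mM Mg acetate, 40 min at room temperature. Stopped with phosphoric acid; substrate-bound radioactivity counted on glass-fibre filter.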

[1] = amide bond, DMF, 25.0 °C
EGFR (h) = EGFR (h) (Homo sapiens, UniProt P00533); assay: EGFR human kinase assay (glass-fiber filter); assay type: biochemical; conditions: test concentration of 10^−6M; read-out: C4 score (inhibition of EGFR human)
Chain of EGFR (h) (P00533 25-1210): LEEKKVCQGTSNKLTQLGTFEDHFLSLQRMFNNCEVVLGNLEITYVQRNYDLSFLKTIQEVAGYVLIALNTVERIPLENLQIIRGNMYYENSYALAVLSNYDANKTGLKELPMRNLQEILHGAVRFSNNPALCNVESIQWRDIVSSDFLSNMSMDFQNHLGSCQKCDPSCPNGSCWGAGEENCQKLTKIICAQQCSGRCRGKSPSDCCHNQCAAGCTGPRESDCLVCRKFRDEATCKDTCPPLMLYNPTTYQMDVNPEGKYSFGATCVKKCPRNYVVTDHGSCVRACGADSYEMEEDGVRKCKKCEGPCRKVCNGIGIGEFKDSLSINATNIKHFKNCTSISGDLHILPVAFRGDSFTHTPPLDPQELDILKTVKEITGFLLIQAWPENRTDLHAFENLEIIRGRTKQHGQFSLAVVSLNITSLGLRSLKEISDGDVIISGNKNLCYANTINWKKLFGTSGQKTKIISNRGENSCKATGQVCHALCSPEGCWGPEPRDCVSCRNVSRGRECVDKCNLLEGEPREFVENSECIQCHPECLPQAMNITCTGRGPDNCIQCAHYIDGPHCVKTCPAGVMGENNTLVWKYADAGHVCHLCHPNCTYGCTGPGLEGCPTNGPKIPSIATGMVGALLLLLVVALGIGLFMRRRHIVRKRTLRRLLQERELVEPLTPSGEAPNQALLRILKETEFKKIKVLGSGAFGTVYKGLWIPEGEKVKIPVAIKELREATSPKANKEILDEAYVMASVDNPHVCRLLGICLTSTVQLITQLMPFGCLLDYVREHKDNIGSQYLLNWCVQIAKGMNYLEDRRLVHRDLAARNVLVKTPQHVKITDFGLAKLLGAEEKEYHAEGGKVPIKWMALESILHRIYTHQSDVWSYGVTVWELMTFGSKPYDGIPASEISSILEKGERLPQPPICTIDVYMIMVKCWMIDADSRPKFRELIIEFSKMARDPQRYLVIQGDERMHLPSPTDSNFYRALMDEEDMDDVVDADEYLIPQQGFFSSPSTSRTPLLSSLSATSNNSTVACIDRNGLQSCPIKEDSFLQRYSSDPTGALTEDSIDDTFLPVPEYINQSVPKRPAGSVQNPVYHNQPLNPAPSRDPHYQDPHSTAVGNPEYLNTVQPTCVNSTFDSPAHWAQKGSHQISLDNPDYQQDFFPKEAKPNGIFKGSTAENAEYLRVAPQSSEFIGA
In short: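 Human EGFR (5-10 mU) phosphorylated 0.1 mg/ml poly(Glu, Tyr) 4:1 in 8 mM MOPS pH 7.0, 0.2 mM EDTA, 10 mM MnCl2, 10 mM MgAcetate with [γ-33P]ATP at unspecified concentration. Incubation lasted 40 minutes at room temperature, was stopped with phosphoric acid, and filter-bound 33P was counted by scintillation.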

Yes (h) = Yes (h) (Homo sapiens, UniProt P07947); assay: Yes human kinase assay (glass-fiber filter); assay type: biochemical; conditions: test concentration of 10^−6M; read-out: C11 score (inhibition of Yes human)
Chain of Yes (h) (P07947 whole entry): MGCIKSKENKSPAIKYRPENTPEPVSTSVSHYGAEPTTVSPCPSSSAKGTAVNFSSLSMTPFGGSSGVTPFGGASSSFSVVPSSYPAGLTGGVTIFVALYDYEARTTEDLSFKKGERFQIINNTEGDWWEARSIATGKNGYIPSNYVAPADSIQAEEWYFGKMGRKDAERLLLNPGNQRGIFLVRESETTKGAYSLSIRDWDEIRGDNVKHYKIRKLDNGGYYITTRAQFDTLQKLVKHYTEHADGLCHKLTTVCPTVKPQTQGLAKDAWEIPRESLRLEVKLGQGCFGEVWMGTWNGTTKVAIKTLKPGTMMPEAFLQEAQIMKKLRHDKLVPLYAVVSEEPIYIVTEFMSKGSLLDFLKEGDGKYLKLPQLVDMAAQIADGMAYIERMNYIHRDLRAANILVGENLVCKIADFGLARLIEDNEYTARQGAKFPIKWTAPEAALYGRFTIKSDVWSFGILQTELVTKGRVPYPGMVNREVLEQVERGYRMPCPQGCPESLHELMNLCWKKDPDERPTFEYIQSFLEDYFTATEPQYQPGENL
In short: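 Yes (h) (5-10 mU) with 0.1 mg/ml poly(Glu, Tyr) 4:1 in 8 mM MOPS pH 7.0, 0.2 mM EDTA, 10 mM MgAcetate and [γ-^33P-ATP], 40 minutes at room temperature. Stopped with phosphoric acid; substrate-bound ^33P counted on glass-fiber filter by scintillation.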

Abl (h) = Abl (h) (Homo sapiens, UniProt P00519); assay: Abl human kinase assay (glass-fiber filter); assay type: biochemical; conditions: test concentration of 10^−6M; read-out: C1 score (inhibition of Abl human)
Chain of Abl (h) (P00519 whole entry): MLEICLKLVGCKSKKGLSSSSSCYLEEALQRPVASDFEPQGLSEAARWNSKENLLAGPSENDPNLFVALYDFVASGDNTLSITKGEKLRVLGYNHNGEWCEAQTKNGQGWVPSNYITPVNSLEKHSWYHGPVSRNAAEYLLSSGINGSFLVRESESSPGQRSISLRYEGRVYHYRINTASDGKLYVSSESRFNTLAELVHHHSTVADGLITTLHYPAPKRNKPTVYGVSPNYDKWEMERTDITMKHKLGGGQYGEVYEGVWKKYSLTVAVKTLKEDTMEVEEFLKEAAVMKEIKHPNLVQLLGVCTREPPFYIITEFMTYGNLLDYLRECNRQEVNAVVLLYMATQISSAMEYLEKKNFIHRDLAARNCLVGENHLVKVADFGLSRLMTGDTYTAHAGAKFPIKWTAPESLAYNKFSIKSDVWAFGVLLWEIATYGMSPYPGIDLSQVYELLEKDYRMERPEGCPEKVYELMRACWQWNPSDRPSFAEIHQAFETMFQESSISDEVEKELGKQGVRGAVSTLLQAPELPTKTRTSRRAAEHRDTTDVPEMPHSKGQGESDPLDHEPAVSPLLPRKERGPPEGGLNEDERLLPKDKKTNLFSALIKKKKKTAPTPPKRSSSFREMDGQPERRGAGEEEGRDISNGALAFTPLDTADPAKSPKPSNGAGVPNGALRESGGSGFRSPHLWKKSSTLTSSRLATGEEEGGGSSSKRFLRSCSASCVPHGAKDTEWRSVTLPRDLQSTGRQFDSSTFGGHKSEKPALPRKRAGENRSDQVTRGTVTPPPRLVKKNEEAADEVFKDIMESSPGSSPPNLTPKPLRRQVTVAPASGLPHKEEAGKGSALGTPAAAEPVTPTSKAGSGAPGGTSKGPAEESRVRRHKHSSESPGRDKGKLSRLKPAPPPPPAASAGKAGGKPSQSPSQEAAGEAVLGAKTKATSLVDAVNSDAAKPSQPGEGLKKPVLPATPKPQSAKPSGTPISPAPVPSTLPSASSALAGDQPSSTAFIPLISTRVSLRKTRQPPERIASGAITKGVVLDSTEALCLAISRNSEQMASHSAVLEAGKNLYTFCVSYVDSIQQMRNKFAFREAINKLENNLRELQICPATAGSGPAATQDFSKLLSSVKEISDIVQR

Lck (h) = Lck (h) (Homo sapiens, UniProt P06239); assay: Lck human kinase assay (glass-fiber filter); assay type: biochemical; conditions: test concentration of 10^−6M; read-out: C9 score (inhibition of Lck human)
Chain of Lck (h) (P06239 whole entry): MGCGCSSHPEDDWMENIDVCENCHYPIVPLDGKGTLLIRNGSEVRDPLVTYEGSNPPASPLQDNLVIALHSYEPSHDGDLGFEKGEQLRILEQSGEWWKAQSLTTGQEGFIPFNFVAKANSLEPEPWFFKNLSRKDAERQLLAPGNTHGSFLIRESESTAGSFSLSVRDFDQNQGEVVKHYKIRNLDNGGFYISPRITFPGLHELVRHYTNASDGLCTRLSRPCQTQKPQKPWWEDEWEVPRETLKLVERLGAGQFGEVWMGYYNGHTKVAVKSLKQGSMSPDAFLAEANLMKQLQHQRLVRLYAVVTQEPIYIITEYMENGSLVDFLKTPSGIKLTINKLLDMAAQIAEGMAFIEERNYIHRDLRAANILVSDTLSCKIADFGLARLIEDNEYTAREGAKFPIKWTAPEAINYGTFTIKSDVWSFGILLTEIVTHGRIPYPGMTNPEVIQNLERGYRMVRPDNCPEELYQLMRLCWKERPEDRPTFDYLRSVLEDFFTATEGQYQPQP
In short: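 Kinase activity measured as transfer of (^33P) from radiolabeled MgATP to substrate, captured on P30 glass-fiber filtermat, washed in 75 mM phosphoric acid and methanol, then scintillation counted.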

cSRC (h) = cSRC (h) (Homo sapiens, UniProt P12931); assay: cSRC human kinase assay (glass-fiber filter); assay type: biochemical; conditions: test concentration of 10^−6M; read-out: C3 score (inhibition of cSRC human)
In short: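 Radiometric assay: kinase and substrate are incubated with [33P]ATP, with the reaction started by MgATP mix. The reaction is spotted on P30 filtermat, washed in 75 mM phosphoric acid and methanol, and the bound 33P is measured by scintillation counting.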

Flt3 (h) = Flt3 (h) (Homo sapiens, UniProt P36888); assay: Flt3 human kinase assay (glass-fiber filter); assay type: biochemical; conditions: test concentration of 10^−6M; read-out: C6 score (inhibition of Flt3 human)
In short: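 Human Flt3 (5-10 mU) with 50 μM peptide substrate in 8 mM MOPS pH 7.0, 0.2 mM EDTA, 10 mM Mg acetate and [γ-33P]ATP (concentration as required), 40 min at room temperature. Reaction stopped with phosphoric acid; substrate 33P incorporation counted on P30 glass-fiber filter.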

Fes (h) = Fes (h) (Homo sapiens, UniProt P07332); assay: Fes human kinase assay (glass-fiber filter); assay type: biochemical; conditions: test concentration of 10^−6M; read-out: C4 score (inhibition of Fes human)
In short: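 Human Fes (5–10 mU) was incubated with 0.1 mg/ml poly(Glu,Tyr) 4:1 in 8 mM MOPS pH 7.0, 0.2 mM EDTA, 10 mM Mg acetate and [γ-33P]ATP for 40 min at room temperature. The reaction was stopped with phosphoric acid, and substrate phosphorylation was quantified by filter binding and scintillation counting.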

Row | inhibition at 1 µM (CSK (h)) [%] | inhibition at 1 µM (Fms (h)) [%] | inhibition at 1 µM (Lyn (h)) [%] | inhibition at 1 µM (EGFR (h)) [%] | melting point [°C] | inhibition at 1 µM (Yes (h)) [%] | inhibition at 1 µM (Abl (h)) [%] | inhibition at 1 µM (Lck (h)) [%] | inhibition at 1 µM (cSRC (h)) [%] | inhibition at 1 µM (Flt3 (h)) [%] | inhibition at 1 µM (Fes (h)) [%] | Structure (SMILES) | ring closure, yield of all isomers ([1]; from NCCCCCCNC(=O)c1cccc(Nc2cc(Nc3cccc(C(=O)O)c3)ncn2)c1, PyBOP, 3.45 mM, 1.5 h) [%] | ring closure, yield of all isomers ([1]; from N#Cc1cnc(Nc2cccc(OCCN)c2)nc1Nc1cccc(C(=O)O)c1, HBTU, 4.0 mM, 17.0 h) [%]
1 | 10 to 30 | 30 to 60 | 10 to 30 | 10 to 30 | 307 | 10 to 30 | 10 to 30 |  |  |  |  | O=C1NCCCCCCNC(=O)c2cccc(c2)Nc2cc(ncn2)Nc2cccc1c2 [Compound 8, 2,4,6,8,15,22-hexaazatetracyclo[22.3.1.1˜3,7˜.1˜9,13˜]triaconta-1(28),3,5,7(30),9,11,13(29),24,26-nonaene-14,23-dione] | 33.7 | 
2 |  |  | > 80 | > 80 | > 260 | > 80 | 10 to 30 | 30 to 60 | 10 to 30 |  |  | COc1ccc2cc1OCCCNCCOc1ccc(Cl)cc1Nc1cc(ncn1)N2 [Compound 13, 1H,7H-6,2:8,12-dimetheno-13,20,1,3,5,7,17-benzodioxapentaazacyclodocosine, 23-chloro-14,15,16,17,18,19-hexahydro-11-methoxy-] |  | 
3 | 10 to 30 | 30 to 60 |  |  | > 260 | 10 to 30 |  | 10 to 30 | 10 to 30 | 30 to 60 | 10 to 30 | N#Cc1cnc2nc1Nc1cccc(c1)C(=O)NCCOc1cccc(c1)N2 [Compound 3, 18-oxa-2,4,8,15,25-pentaazatetracyclo[17.3.1.1˜3,7˜.1˜9,13˜]pentacosa-1(23),3,5,7(25),9,11,13(24),19,21-nonaene-6-carbonitrile, 14-oxo-] |  | 15
